Results from ChEMBL document CHEMBL2157908, “Formylated polyamines as peptidomimetics” (Bioorg Med Chem Lett, 2012).
pIC50, pKi: −log10 of the molar value. Activity calls are given as the source filed them. The calls are words filed in the database; no cut-off is given here.

Legend:
[1] = Half life in human serum; assay type: ADME, cell-free
Mu-type opioid receptor [2] = biological target: T1, Mu-type opioid receptor (Homo sapiens, UniProt P35372); assay: Displacement of [3H]DAMGO from human recombinant mu-opioid receptor expressed in CHO cells after 60 mins by liquid scintillation assay; assay type: cell-based
T1 sequence (P35372 whole entry): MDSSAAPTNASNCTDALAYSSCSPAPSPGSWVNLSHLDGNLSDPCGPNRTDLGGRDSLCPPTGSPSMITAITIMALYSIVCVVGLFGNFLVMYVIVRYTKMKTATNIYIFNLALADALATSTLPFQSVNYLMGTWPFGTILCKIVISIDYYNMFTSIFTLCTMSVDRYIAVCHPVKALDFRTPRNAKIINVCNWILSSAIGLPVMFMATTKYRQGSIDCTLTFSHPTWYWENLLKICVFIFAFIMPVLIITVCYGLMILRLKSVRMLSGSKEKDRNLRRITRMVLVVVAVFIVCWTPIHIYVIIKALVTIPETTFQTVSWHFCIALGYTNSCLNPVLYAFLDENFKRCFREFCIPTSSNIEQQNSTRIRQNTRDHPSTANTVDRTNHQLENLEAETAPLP

Mu-type opioid receptor [3] = biological target: T1, Mu-type opioid receptor; assay: Agonist activity at human recombinant mu-opioid receptor expressed in CHO cells after 60 mins by [35S]GTPgammaS binding assay; assay type: functional, cell-based

half-life [1]: 41 h | pIC50 (Mu-type opioid receptor [2]): 5.49 | pKi (Mu-type opioid receptor [2]): 6.40 | Activity (Mu-type opioid receptor [3]): inactive
SMILES: CC(C)C[C@H](CN(C=O)[C@H](Cc1ccccc1)CN(C=O)CCN(C=O)CCN(C=O)[C@@H](CN)Cc1ccc(O)cc1)NS(C)(=O)=O
